Measurements reported in patent US5629288A, “Lipopeptide derivatives, a process for their preparation and their use” (Hoechst Aktiengesellschaft, priority 1994, dated 1997).

Test system: venous blood from rhesus monkeys
Experiment: Hemolytic activity in vitro (standard hemolysis test)
Format: cell-based
Conditions: for Hemolysis (%): fresh heparinized rhesus monkey blood, 37° C., 3 hours, absorption at 540 nm, % of maximum inducible hemolysis (distilled water = 100%), dilutions 1600-3.125 mg/l, concentration behind the value not stated; for hemolysis in the standard hemolysis test (in words): rhesus monkey blood
Method: 2) Freshly removed venous blood from rhesus monkeys is used to measure the hemolytic activity. The blood is collected in heparinized tubes and 200 μl aliquots are distributed over 12 polyethylene tubes. 200 μl of distilled water are added to one aliquot, which serves as 100% standard, and another is mixed with 200 μl of physiological saline (0.9% NaCl) (0% standard). 200 μl portions of substance dilutions in physiological saline containing 1600, 800, 400, 200, 100, 50, 25, 12.5, 6.25 and 3.125 mg/l are distributed over the other tubes. All the tubes are cautiously swirled and incubated at 37° C. for 3 hours. Subsequently 100% standard is made up with 5 ml of distilled water, and the others are each made up with 5 ml of physiological saline and centrifuged at 700 g for 5 minutes.
The hemolysis is determined by measuring the absorption of the supernatant in a spectrophotometer at a wavelength of 540 nm. The absorption of the standard with complete hemolysis (distilled water) is set equal to 100%. The absorptions of the test product dilutions and of the 0% standard are measured and reported as a percentage of the maximum inducible hemolysis.

SMILES	Hemolysis (%)	hemolysis in the standard hemolysis test (in words)
CCCCCCCCCCC(=O)NC(CC(=O)O)C(=O)NC1C(=O)N2CCCCC2C(=O)NC(C(C)C(=O)O)C(=O)NC(CC(=O)O)C(=O)NCC(=O)NC(CC(=O)O)C(=O)NCC(=O)NC(C(C)N)C(=O)NC(C(C)C)C(=O)N2CCCC2C(=O)NC1C (centres unmarked) [Example 6]	16.5	–
CCCCCCCCCCCCC(=O)NC(CC(=O)O)C(=O)NC1C(=O)N2CCCCC2C(=O)NC(C(C)C(=O)O)C(=O)NC(CC(=O)O)C(=O)NCC(=O)NC(CC(=O)O)C(=O)NCC(=O)NC(C(C)N)C(=O)NC(C(C)C)C(=O)N2CCCC2C(=O)NC1C (centres unmarked) [Example 1, Tridecanoyl Derivative of A 1437 Cyclic Peptide]	19.6	–
CC(C)C1NC(=O)C(C(C)N)NC(=O)CNC(=O)C(CC(=O)O)NC(=O)CNC(=O)C(CC(=O)O)NC(=O)C(C(C)C(=O)O)NC(=O)C2CCCCN2C(=O)C(NC(=O)C(CC(=O)O)NC(=O)c2ccc(CCc3ccc(CCc4ccccc4)cc3)cc2)C(C)NC(=O)C2CCCN2C1=O (centres unmarked) [Example 56]	0.4	virtually no evidence of hemolysis
CC(C)CCCCCCCCCCC(=O)NC(CC(=O)O)C(=O)NC1C(=O)N2CCCCC2C(=O)NC(C(C)C(=O)O)C(=O)NC(CC(=O)O)C(=O)NCC(=O)NC(CC(=O)O)C(=O)NCC(=O)NC(C(C)N)C(=O)NC(C(C)C)C(=O)N2CCCC2C(=O)NC1C (centres unmarked) [Example 14]	22.9	–
CCCCCCCCCCCC(=O)NC(CC(=O)O)C(=O)NC1C(=O)N2CCCCC2C(=O)NC(C(C)C(=O)O)C(=O)NC(CC(=O)O)C(=O)NCC(=O)NC(CC(=O)O)C(=O)NCC(=O)NC(C(C)N)C(=O)NC(C(C)C)C(=O)N2CCCC2C(=O)NC1C (centres unmarked) [Example 7]	25.7	–
CCCCCCCCCCCCCCC(=O)NC(CC(=O)O)C(=O)NC1C(=O)N2CCCCC2C(=O)NC(C(C)C(=O)O)C(=O)NC(CC(=O)O)C(=O)NCC(=O)NC(CC(=O)O)C(=O)NCC(=O)NC(C(C)N)C(=O)NC(C(C)C)C(=O)N2CCCC2C(=O)NC1C (centres unmarked) [Example 9]	22.8	–
CCCCCCCCCCCCCC(=O)NC(CC(=O)O)C(=O)NC1C(=O)N2CCCCC2C(=O)NC(C(C)C(=O)O)C(=O)NC(CC(=O)O)C(=O)NCC(=O)NC(CC(=O)O)C(=O)NCC(=O)NC(C(C)N)C(=O)NC(C(C)C)C(=O)N2CCCC2C(=O)NC1C (centres unmarked) [Example 8]	19.3	–
CC(C)C1NC(=O)C(C(C)N)NC(=O)CNC(=O)C(CC(=O)O)NC(=O)CNC(=O)C(CC(=O)O)NC(=O)C(C(C)C(=O)O)NC(=O)C2CCCCN2C(=O)C(NC(=O)C(CC(=O)O)NC(=O)c2ccc(CCc3ccc(-c4ccccc4)cc3)cc2)C(C)NC(=O)C2CCCN2C1=O (centres unmarked) [Example 55]	0.5	virtually no evidence of hemolysis
CCCCCCCc1ccc(C(=O)NC(CC(=O)O)C(=O)NC2C(=O)N3CCCCC3C(=O)NC(C(C)C(=O)O)C(=O)NC(CC(=O)O)C(=O)NCC(=O)NC(CC(=O)O)C(=O)NCC(=O)NC(C(C)N)C(=O)NC(C(C)C)C(=O)N3CCCC3C(=O)NC2C)cc1 (centres unmarked) [Example 49]	0.0	–
